{
  "source": "patent EP2951180B1",
  "about": "“2,6,7,8 SUBSTITUTED PURINES AS HDM2 INHIBITORS” (Merck Sharp & Dohme Corp., priority 2013, dated 2014)",
  "molecular_target": "T1, HDM2 (Homo sapiens, UniProt Q00987)",
  "T1 construct": "Thioredoxin (N); made in house; host or cells: E. coli strain BL21(DE3)Rosetta",
  "T1 sequence (Q00987 17-125)": "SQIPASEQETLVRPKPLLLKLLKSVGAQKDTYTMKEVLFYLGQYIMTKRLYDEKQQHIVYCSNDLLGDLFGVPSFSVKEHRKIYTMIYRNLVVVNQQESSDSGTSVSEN",
  "assay": "HDM2 FRET assay (inhibition of binding of FITC labeled p53-pocket peptide to HDM2)",
  "settings": "for IC50: read-out: FRET IC50",
  "method_in_brief": "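TR-FRET with 0.5 nM His-tagged recombinant HDM2, 3 nM FITC-labelled p53 peptide and 0.25 nM Tb-anti-His antibody in PBS, 0.01% BSA, 0.01% Tween-20, 0.1% DMSO. IC50 from em520/em495 ratio over 10-point dilutions, 4-parameter logistic fit.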",
  "key": {"[1]": {"settings": "0.5 nM HDM2 (residues 17 to 125), 3nM peptide, two hour incubation at room temperature"}},
  "note": "Where two headings read alike, the source gives them in different places.",
  "data": [
    {"smiles": "C[C@@H](Nc1nc(C(=O)O)nc2nc(NC(C)(C)c3ccccc3)n(Cc3ccc(C(F)(F)F)cc3)c12)C1CCC1", "note": "[Example 9.123, 6-{[(1R)-1-cyclobutylethyl]amino}-8-[(1-methyl-1-phenylethyl)amino]-7-[4-(trifluoromethyl)benzyl]-7H-purine-2-carboxylic acid]", "values": [
      {"measurement": "IC50", "setting": "Table 9", "result": 1.85, "unit": "nM"}
    ]},
    {"smiles": "Cc1cccc(-c2nc3nc(C(=O)O)nc(N[C@H](C)C4CCC4)c3n2C[C@H]2CC[C@@H](C(F)(F)F)CC2)c1", "note": "[Example 18.29, 6-{[(1R)-1-cyclobutylethyl]amino}-8-(3-methylphenyl)-7-{[cis-4-(trifluoromethyl)cyclohexyl]methyl}-7H-purine-2-carboxylic acid]", "values": [
      {"measurement": "IC50", "setting": "Table 18", "result": 677, "unit": "nM"}
    ]},
    {"smiles": "C=C(c1nc2nc(-c3noc(=O)[nH]3)nc(N[C@H](C)C3CCC3)c2n1C[C@H]1CC[C@H](C)CC1)C1CCOCC1", "note": "[Example 22.42, 3-(6-{[(1R)-1-cyclobutylethyl]amino}-7-[(trans-4-methylcyclohexyl)methyl] -8-[1-(tetrahydro-2H-pyran-4-yl)ethenyl]-7H-purin-2-yl)-1,2,4-oxadiazol-5(4H)-one]", "values": [
      {"measurement": "IC50", "setting": "Table 22", "result": 5.07, "unit": "nM"}
    ]},
    {"smiles": "C[C@H]1CC[C@H](Cn2c(N3CCOC[C@H]3c3ccccc3)nc3nc(-c4noc(=O)[nH]4)nc(N4CCCCC4C4CCC4)c32)CC1", "note": "(stereo partly drawn) [Example 11.82, 3-{6-(2-cyclobutylpiperidin-1-yl)-7-[(trans-4-methylcyclohexyl)methyl]-8-[(3R)-3-phenylmorpholin-4-yl]-7H -purin-2-yl}-1,2,4-oxadiazol-5(4H)-one]", "values": [
      {"measurement": "IC50", "setting": "Table 11", "result": 6.45, "unit": "nM"}
    ]},
    {"smiles": "CC(Nc1nc2nc(-c3noc(=O)[nH]3)nc(N[C@H](C)C3CCC3)c2n1C[C@H]1CC[C@H](C)CC1)c1cncnc1", "note": "(stereo partly drawn) [Example 11.85, 3-(6-{[(1R)-1-cyclobutylethyl]amino}-7-[(trans-4-methylcyclohexyl)methyl]-8-[(1-pyrimidin-5-ylethyl)amino]-7H-purin-2-yl)-1,2,4-oxadiazol-5(2H)-one]", "values": [
      {"measurement": "IC50", "setting": "Table 11", "result": 4.97, "unit": "nM"}
    ]},
    {"smiles": "C[C@@H](Nc1nc(-c2noc(=O)[nH]2)nc2nc(N3CCOC4CC43)n(C[C@H]3CC[C@H](C)CC3)c12)C1CCC1", "note": "(stereo partly drawn) [Example 11.127, 3-[6-{[(1R)-1-cyclobutylethyl]amino}-7-[(trans-4-methylcyclohexyl)methyl]-8-(2-oxa-5-azabicyclo[4.1.0]hept-5-yl)-7H-purin-2-yl]-1,2,4-oxadiazol-5(4H)-one]", "values": [
      {"measurement": "IC50", "setting": "Table 11", "result": 26.2, "unit": "nM"}
    ]},
    {"smiles": "C[C@H]1CC[C@H](Cn2c(Sc3ccccc3)nc3nc(-c4n[nH]c(=O)o4)nc(-c4cncc(Cl)c4)c32)CC1", "note": "[Example 19.6, 5-[6-(5-chloropyridin-3-yl)-7-[(trans-4-methylcyclohexyl)methyl]-8-(phenylsulfanyl)-7H-purin-2-yl]-1,3,4-oxadiazol-2(3H)-one]", "values": [
      {"measurement": "IC50", "setting": "Table 19", "result": 3.14, "unit": "nM"}
    ]},
    {"smiles": "Cc1cccc(-c2nc3nc(C(=O)O)nc(N4CCCC4C4CCC4)c3n2Cc2ccc(C(F)(F)F)cc2)c1", "note": "(centres unmarked) [Example 6.92, 6-(2-cyclobutylpyrrolidin-1-yl)-8-(3-methylphenyl)-7-[4-(trifluoromethyl)benzyl]-7H-purine-2-carboxylic acid]", "values": [
      {"measurement": "IC50", "setting": "Table 6", "result": 352, "unit": "nM"}
    ]},
    {"smiles": "CC[C@H](Nc1nc2nc(C(=O)O)nc(N[C@H](C)C3CCC3)c2n1Cc1ccc(C(F)(F)F)cc1)c1ccccc1", "note": "[Example 9.36, 6-{[(1R)-1-cyclobutylethyl]amino}-8-{[(1S)-1-phenylpropyl]amino}-7-[4-(trifluoromethyl)benzyl]-7H-purine-2-carboxylic acid]", "values": [
      {"measurement": "IC50", "setting": "Table 9", "result": 0.862, "unit": "nM"}
    ]},
    {"smiles": "C[C@@H](Nc1nc(C(=O)O)nc2nc(N3CCOC[C@@H]3C)n(Cc3ccc(C(F)(F)F)cc3)c12)C1CCC1", "note": "[Example 9.32, 6-{[(1R)-1-cyclobutylethyl]amino}-8-[(3S)-3-methylmorpholin-4-yl]-7-[4-(trifluoromethyl)benzyl]-7H-purine-2-carboxylic acid]", "values": [
      {"measurement": "IC50", "setting": "Table 9", "result": 15.2, "unit": "nM"}
    ]},
    {"smiles": "CC([C@H]1CC[C@H](C)CC1)n1c(N2CCOC[C@H]2C)nc2nc(-c3noc(=O)[nH]3)nc(N[C@H](C)C3CCC3)c21", "note": "(single isomer, unassigned) [Example 18.13]", "values": [
      {"measurement": "IC50", "setting": "Table 18", "result": 2.27, "unit": "nM"}
    ]},
    {"smiles": "COCC1CN(c2nc3nc(C(=O)O)nc(N[C@H](C)C4CCC4)c3n2Cc2ccc(C(F)(F)F)cc2)CCO1", "note": "(stereo partly drawn) [Example 9.24, 6-{[(1R)-1-cyclobutylethyl]amino}-8-[2-(methoxymethyl)morpholin-4-yl]-7-[4-(trifluoromethyl)benzyl]-7H-purine-2-carboxylic acid]", "values": [
      {"measurement": "IC50", "setting": "Table 9", "result": 72.9, "unit": "nM"}
    ]},
    {"smiles": "Cc1ccc(C2CCCCN2c2nc3nc(-c4noc(=O)[nH]4)nc(N[C@H](C)C4CCC4)c3n2C[C@H]2CC[C@H](C)CC2)o1", "note": "(stereo partly drawn) [Example 11.78, 3-(6-{[(1R)-1-cyclobutylethyl]amino}-7-[(trans-4-methylcyclohexyl)methyl]-8-[2-(5-methylfuran-2-yl)piperidin-1-yl]-7H-purin-2-yl)-1,2,4-oxadiazol-5(4H)-one]", "values": [
      {"measurement": "IC50", "setting": "Table 11", "result": 37.1, "unit": "nM"}
    ]},
    {"smiles": "Cc1cc(Cl)cc(-c2nc(-c3noc(=O)[nH]3)nc3nc(N4CCOC[C@H]4c4ccccc4)n(C[C@H]4CC[C@H](C)CC4)c23)c1", "note": "[Example 16.114, 3-{6-(3-chloro-5-methylphenyl)-7-[(trans-4-methylcyclohexyl)methyl]-8-[(3R)-3-phenylmorpholin-4-yl]-7H-purin-2-yl}-1,2,4-oxadiazol-5(4H)-one]", "values": [
      {"measurement": "IC50", "setting": "[1]", "result": 1.56, "unit": "nM"}
    ]},
    {"smiles": "COC[C@@H]1COCCN1c1nc2nc(-c3noc(=O)[nH]3)nc(-c3cccc(Cl)c3)c2n1C[C@H]1CC[C@H](C)CC1", "note": "[Example 16.59, 3-{6-(3-chlorophenyl)-8-[(3R)-3-(methoxymethyl)mor pholin-4-yl]-7-[(trans-4-methylcyclohexyl)methyl]-7H-purin-2-yl}-1,2,4-oxadiazol-5(4H)-one]", "values": [
      {"measurement": "IC50", "setting": "[1]", "result": 19, "unit": "nM"}
    ]},
    {"smiles": "C[C@@H]1COC[C@@H](C)N1c1nc2nc(-c3n[nH]c(=O)o3)nc(-c3cncc(Cl)c3)c2n1C[C@H]1CC[C@H](C)CC1", "note": "[Example 16.105, 5-{6-(5-chloropyridin-3-yl)-8-[(3R,5R)-3,5-dimethylmorpholin-4-yl]-7-[(trans-4-methylcyclohexyl)methyl]-7H-purin-2-yl}-1,3,4-oxadiazol-2(3H)-one]", "values": [
      {"measurement": "IC50", "setting": "[1]", "result": 11, "unit": "nM"}
    ]},
    {"smiles": "CNc1nc(N[C@H](C)C2CCC2)c2c(n1)nc(N1CCOC[C@H]1c1ccccc1)n2C[C@H]1CC[C@H](C)CC1", "note": "[Example 13.3, N^6-[(1R)-1-cyclobutylethyl]-N^2-methyl-7-[(trans-4-methylcyclohexyl)methyl]-8-[(3R)-3-phenylmorpholin-4-yl]-7H-purine-2,6-diamine]", "values": [
      {"measurement": "inhibition at 1 µM", "setting": "read-out: % inh. at 1000 nM, at 1000 nM compound", "result": 46, "unit": "%"}
    ]},
    {"smiles": "CC1CN(c2nc3nc(C(=O)O)nc(N[C@H](C)C4CCC4)c3n2Cc2ccc(C(F)(F)F)cc2)CCO1", "note": "(stereo partly drawn) [Example 9.20, 6-{[(1R)-1-cyclobutylethyl]amino}-8-(2-methylmorpholin-4-yl)-7-[4-(trifluoromethyl)benzyl]-7H-purine-2-carboxylic acid]", "values": [
      {"measurement": "IC50", "setting": "Table 9", "result": 63.1, "unit": "nM"}
    ]},
    {"smiles": "C[C@@H](Nc1nc(S(=O)(=O)CCO)nc2nc(N3CCOC[C@H]3c3ccccc3)n(C[C@H]3CC[C@H](C)CC3)c12)C1CCC1", "note": "[Example 14.18, 2-[(6-{[(1R)-1-cyclobutylethyl]amino} -7-[(trans-4-methylcyclohexyl)methyl]-8-[(3R)-3-phenylmorpholin-4-yl]-7H-purin-2-yl)sulfonyl]ethanol]", "values": [
      {"measurement": "IC50", "setting": "[1]", "result": 6.94, "unit": "nM"}
    ]},
    {"smiles": "COC(C)(C)[C@@H]1COCCN1c1nc2nc(-c3noc(=O)[nH]3)nc(-c3cccc(Cl)c3)c2n1C[C@H]1CC[C@H](C)CC1", "note": "[Example 16.63, 3-{6-(3-chlorophenyl)-8-[(3S)-3-(1-methoxy-1-methylethyl)morpholin-4-yl]-7-[(trans-4-methylcyclohexyl)methyl]-7H-purin-2-yl}-1,2,4-oxadiazol-5(4H)-one]", "values": [
      {"measurement": "IC50", "setting": "[1]", "result": 19.7, "unit": "nM"}
    ]},
    {"smiles": "COC(c1ccccc1C#N)c1nc2nc(-c3noc(=O)[nH]3)nc(-c3cncc(Cl)c3)c2n1C[C@H]1CC[C@H](C)CC1", "note": "(mixture of isomers) [Example 23.109, 2-{[6-(5-chloropyridin-3-yl)-7-[(trans-4-methylcyclohexyl)methyl]-2-(5-oxo-4,5-dihydro-1,2,4-oxadiazol-3-yl)-7H-purin-8-yl](methoxy)methyl}benzonitrile]", "values": [
      {"measurement": "IC50", "setting": "Table 23", "result": 0.707, "unit": "nM"}
    ]},
    {"smiles": "C[C@H]1CC[C@H](Cn2c(N3CCOC[C@H]3c3ccccc3)nc3nc(-c4noc(=O)[nH]4)nc(-c4cc(Cl)cnc4O)c32)CC1", "note": "[Example 16.162, 3-{6-(5-chloro-2-hydroxypyridin-3-yl)-7-[(trans-4-methylcyclohexyl)methyl]-8-[(3R)-3-phenylmorpholin-4-yl]-7H-purin-2-yl}-1,2,4-oxadiazol-5(4H)-one]", "values": [
      {"measurement": "IC50", "setting": "[1]", "result": 0.847, "unit": "nM"}
    ]},
    {"smiles": "CC[C@H]1CC[C@H](Cn2c(N3CCOC[C@H]3c3ccccc3)nc3nc(C(=O)O)nc(N[C@H](C)C4CCC4)c32)CC1", "note": "[Example 18.21, 6-{[(1R)-1-cyclobutylethyl]amino}-7-[(trans-4-ethylcyclohexyl)methyl]-8-[(3R)-3-phenylmorpholin-4-yl]-7H-purine-2-carboxylic acid]", "values": [
      {"measurement": "IC50", "setting": "Table 18", "result": 0.548, "unit": "nM"}
    ]},
    {"smiles": "Cc1cccc(-c2nc3nc(C(=O)O)nc(NCc4ccccc4)c3n2Cc2ccc(C(F)(F)F)cc2)c1", "note": "[Example 6.29, 6-(benzylamino)-8-(3-methylphenyl)-7-[4-(trifluoromethyl)benzyl]-7H-purine-2-carboxylic acid]", "values": [
      {"measurement": "IC50", "setting": "Table 6", "result": 1770, "unit": "nM"}
    ]},
    {"smiles": "C[C@@H](Nc1nc(-c2noc(=O)[nH]2)nc2nc(N(C)CC3(C)CCN(C)C3)n(Cc3ccc(C(F)(F)F)cc3)c12)C1CCC1", "note": "(stereo partly drawn) [Example 9.98, 3-(6-{[(1R)-1-cyclobutylethyl]amino}-8-{[(1,3-dimethylpyrrolidin-3-yl)methyl] (methyl)amino}-7-[4-(trifluoromethyl)benzyl]-7H-purin-2-yl)-1,2,4-oxadiazol-5(4H)-one]", "values": [
      {"measurement": "IC50", "setting": "Table 9", "result": 71, "unit": "nM"}
    ]},
    {"smiles": "C[C@@H]1COC[C@H](C)N1c1nc2nc(-c3noc(=O)[nH]3)nc(-c3cccc(Cl)c3)c2n1C[C@H]1CC[C@H](C)CC1", "note": "[Example 16.67, 3-{6-(3-chlorophenyl)-8-[(3R,5S)-3,5-dimethylmorpholin-4-yl]-7-[(trans-4-methylcyclohexyl)methyl]-7H-purin-2-yl}-1,2,4-oxadiazol-5(4H)-one]", "values": [
      {"measurement": "IC50", "setting": "[1]", "result": 6.36, "unit": "nM"}
    ]}
  ]
}
